Source: patent US8299074B2, “P38 MAP kinase inhibitors” (RespiVert Ltd., priority 2008, dated 2012)
Read-outs that look alike come from different tables or passages of the source.

Assays:
p38 MAPKs or JNKs = settings: Kuma, Y. (2005); cited from earlier work
[1] = test system: Differentiated U937 cells; assay: MTT assay (cell viability); format: cell-based, human
In short: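 Differentiated U937 cells pre-incubated with compound 4 h in 5% FCS or 24 h in 10% FCS; MTT read at 550 nm after DMSO solubilisation. Percentage loss of viability relative to 0.5% DMSO vehicle; apparent increases appear as negative percentages.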

BEAS2B cells = assay: Poly I:C-induced ICAM-1 induction in BEAS2B cells; format: cell-based; settings: Homo sapiens, BEAS-2B, read-out: BEAS2B (polyIC) ICAM1 IC50
In short: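 Poly I:C (1 ug/ml) transfected into BEAS2B cells after 2 h compound pre-incubation. Surface ICAM-1 measured by cell-based ELISA 18 h post-transfection (HRP, OD450–655), corrected for cell number by OD595.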

U937 cells [2] = assay: LPS-induced IL-8 release in U937 cells; format: cell-based; settings: Homo sapiens, read-out: DU937 (LPS) IL-8 IC50
In short: (§1)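 U937 cells differentiated with PMA (100 ng/ml) for 48 to 72 hours, pre-treated with compound for 2 hrs, then stimulated with E. coli O111:B4 LPS for 4 hrs. Supernatant TNFα and IL-8 measured by sandwich ELISA; inhibition at each concentration versus vehicle control.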

p38 MAPK alpha (MAPK14) = molecular target: T1, p38 MAPK alpha (MAPK14) (Homo sapiens, UniProt Q16539); assay: Enzyme inhibition assay, p38 MAPK alpha (FRET, Z-LYTE, via MAPKAP-K2); format: biochemical; settings: read-out: Enzyme p38α IC50
T1 construct: purchased Invitrogen

mice = assay: LPS-induced neutrophils accumulation in mice; format: in vivo
THP-1 cells = assay: LPS-induced TNF alpha release in THP-1 cells; format: cell-based; settings: Homo sapiens, THP-1, read-out: THP-1 (LPS) TNFα IC50
Procedure: LPS-Induced TNF Alpha Release in THP-1 Cells: Potency […] Coli; O111:B4, Sigma) for 4 hr and the supernatant collected for determination of TNFα concentration by sandwich ELISA (Duo-set, R&D systems). The inhibition of TNFα production was calculated at each concentration by comparison with vehicle control.

U937 cells [3] = assay: LPS-induced TNF alpha release in U937 cells; format: cell-based; settings: Homo sapiens; read-out: DU937 (LPS) TNFα REC50
In short: as §1

[4] = test system: Dunkin-Hartley guinea-pigs; assay: Ovalbumin challenge/parainfluenza infection model; format: in vivo; settings: nebulised 1.5 mg per day; sensitized animals treated with PIV3 medium; initial studies
A/J mice = assay: Cigarette smoke model; format: in vivo; settings: 50 μg/mL (35 μl, bid) intra-nasally, cigarette smoke exposed mice
Procedure: Cigarette Smoke Model A/J mice (males, 5 weeks old) were exposed to cigarette smoke (4% cigarette smoke, diluted with compressed air) for 30 min/day for 11 days using a Tobacco Smoke Inhalation Experiment System for small animals (Model SIS-CS; Sibata Scientific Technology, Tokyo, Japan). Test substances were given intra-nasally (35 μL of solution in 50% DMSO/PBS) and therapeutically twice daily for 3 days after the final cigarette smoke exposure. Twelve hours after the last dosing, animals were anesthetized, the trachea cannulated and bronchoalveolar lavage fluid (BALF) was collected.

[5] = Table 3, first MTT column, loss of cell viability at 1 μg/ml
[6] = Table 3, second MTT column, loss of cell viability at 1 μg/ml
[7] = Table 2, loss of cell viability at 1 μg/ml

T1 sequence (Q16539 whole entry): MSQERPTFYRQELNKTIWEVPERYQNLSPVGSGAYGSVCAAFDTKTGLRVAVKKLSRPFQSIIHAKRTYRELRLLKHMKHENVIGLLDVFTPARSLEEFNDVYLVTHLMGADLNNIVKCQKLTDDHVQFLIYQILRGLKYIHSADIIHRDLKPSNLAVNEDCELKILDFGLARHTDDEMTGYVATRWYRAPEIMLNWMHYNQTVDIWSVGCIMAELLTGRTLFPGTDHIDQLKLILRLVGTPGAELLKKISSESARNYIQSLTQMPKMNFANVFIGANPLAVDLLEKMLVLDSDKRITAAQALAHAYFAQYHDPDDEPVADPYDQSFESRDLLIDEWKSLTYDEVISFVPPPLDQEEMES

SMILES	IC50 (U937 cells [2]; Table 3) [nM]	IC50 (p38 MAPK alpha (MAPK14); Table 3) [nM]	IC50 (THP-1 cells; Table 3) [nM]	EC50 (U937 cells [3]) [nM]	DU937 (cell viability) MTT assay 4 h [1, 5]	DU937 (cell viability) MTT assay 4 h [1, 6]	IC50 (BEAS2B cells; Table 3) [nM]	other results
Cc1ccc(-n2nc(C(C)(C)C)cc2NC(=O)Nc2ccc(OCCN3CCOCC3)c3ccccc23)cc1 [BIRB 796]								phosphorylation of p38 MAPKs or JNKs by the upstream kinase MKK6 or MKK4 (p38 MAPKs or JNKs): impaired the phosphorylation of p38 MAPKs or JNKs
CCC(=O)O[C@]1(C(=O)SCF)[C@H](C)C[C@H]2[C@@H]3C[C@H](F)C4=CC(=O)C=C[C@]4(C)[C@@]3(F)[C@@H](O)C[C@@]21C [fluticasone propionate]								inhibition of LPS-induced neutrophil accumulation (mice; 50 μg/mL (35 μl, bid)): > 80%; ovalbumin-mediated lung function changes [4]: inhibited ovalbumin-mediated lung function changes; macrophage accumulation into airways (A/J mice): did not inhibit; neutrophil accumulation into airways (A/J mice): did not inhibit
Cc1ccc(-n2nc(C(C)(C)C)cc2NC(=O)Nc2ccc(Oc3ccnc(NC(=O)NCCCCN4CCOCC4)c3)c3ccccc23)cc1 [Example 47, N-(4-(Morpholin-4-yl)butyl)-N′-4-(4-(3-(3-tert-butyl-1-p-tolyl-1H-pyrazol-5-yl)ureido)naphthalen-1-yloxy)pyridin-2-ylurea]	< 10	< 10	< 10	< 10	− (<=30%)	− (<=30%)	< 10	
Cc1ccc(-n2nc(C(C)(C)C)cc2NC(=O)Nc2ccc(Oc3ccnc(NC(=O)CNC(=O)CCN4CCOCC4)c3)c3ccccc23)cc1 [Example 19, N-(2-(4-(4-(3-(3-tert-Butyl-1-p-tolyl-1H-pyrazol-5-yl)ureido)naphthalen-1-yloxy)pyridin-2-ylamino)-2-oxoethyl)-3-morpholinopropanamide]				< 10				DU937 (cell viability) MTT assay 4 h [1, 7]: − (<=30%); DU937 (cell viability) MTT assay 24 h [1, 7]: + (>30%); IC50 (BEAS2B cells; Table 2): < 10 nM; IC50 (U937 cells [2]; Table 2): < 10 nM; IC50 (p38 MAPK alpha (MAPK14); Table 2): < 10 nM; IC50 (THP-1 cells; Table 2): < 10 nM

Second part, led by results:

IC50 (U937 cells [2]; Table 3) [nM]	IC50 (p38 MAPK alpha (MAPK14); Table 3) [nM]	IC50 (THP-1 cells; Table 3) [nM]	EC50 (U937 cells [3]) [nM]	SMILES	DU937 (cell viability) MTT assay 4 h [1, 5]	DU937 (cell viability) MTT assay 4 h [1, 6]	IC50 (BEAS2B cells; Table 3) [nM]	other results
< 5000	< 5000	< 10	< 10	Cc1ccc(-n2nc(C(C)(C)C)cc2NC(=O)Nc2ccc(Oc3ccnc(NC(=O)N4CCOCC4)c3)c3ccccc23)cc1 [Example 42, N-(4-(4-(3-(3-tert-Butyl-1-p-tolyl-1H-pyrazol-5-yl)ureido)naphthalen-1-yloxy)pyridin-2-yl)morpholine-4-carboxamide]	− (<=30%)	− (<=30%)	< 10	Neutrophil numbers in BAL (mice; 0.2 mg/ml intra tracheal, 8 hr pre-dose, BALF 8 h after LPS, mean ± SEM, n = 8): 8.60 ± 1.59 ×10^5/mL
< 10	< 10	< 10	< 10	Cc1ccc(-n2nc(C(C)(C)C)cc2NC(=O)Nc2ccc(Oc3ccnc(NC(=O)N4CCC(O)CC4)c3)c3ccccc23)cc1 [Example 51, N-(4-(4-(3-(3-tert-Butyl-1-p-tolyl-1H-pyrazol-5-yl)ureido)naphthalen-1-yloxy)pyridin-2-yl)-4-hydroxypiperidine-1-carboxamide]	− (<=30%)	+ (>30%)	< 10	
< 5000	< 5000	< 10	< 5000	CCNC(=O)Nc1cc(Oc2ccc(NC(=O)Nc3cc(C(C)(C)C)nn3-c3ccc(C)cc3)c3ccccc23)ccn1 [Example 28, N-Ethyl-N′-4-(4-(3-(3-tert-butyl-1-p-tolyl-1H-pyrazol-5-yl)ureido)naphthalen-1-yloxy)pyridin-2-ylurea]			< 5000	DU937 (cell viability) MTT assay 4 h ([1]; Table 3, first MTT column, loss of cell viability, test conducted at 10 μg/ml): −^$ (<=30%); DU937 (cell viability) MTT assay 4 h ([1]; Table 3, second MTT column, loss of cell viability, test conducted at 10 μg/ml): −^$ (<=30%)
< 10	< 10	< 10	< 10	Cc1ccc(-n2nc(C(C)(C)C)cc2NC(=O)Nc2ccc(Oc3ccnc(NC(=O)NCC(=O)N4CCN(C)CC4)c3)c3ccccc23)cc1 [Example 61, 1-(2-(3-(4-(4-(3-(3-tert-Butyl-1-p-tolyl-1H-pyrazol-5-yl)ureido)naphthalen-1-yloxy)pyridin-2-yl)ureido)acetyl)-4-methylpiperazine]	− (<=30%)	− (<=30%)	< 10	
